In brackets after ≈: the same amount, converted by molar mass. Values belong to the compound of their own block, whether it stands above or below them.
How the values were obtained:
[1] = physchem; conditions: buffer, pH 7.4
[2] = Intrinsic clearance in human liver microsomes measured over 40 mins by HPLC/MS analysis; type: ADME; conditions: read-out: CLH
[3] = target: Collagenase 3 (Homo sapiens, UniProt P45452); assay: Inhibition of full length human recombinant MMP13 using MCA-Arg-Pro-Leu-Gly-Leu-Dpa-Ala-Arg-Glu-Arg-NH2 as substrate preincubated for 60 mins followed by substrate addition by fluorescence assay
[4] = Intrinsic clearance in rat liver microsomes measured over 40 mins by HPLC/MS analysis; type: ADME; conditions: read-out: CLH
[5] = Clearance in Sprague-Dawley rat at 1 mg/kg, iv administered as bolus dose by LC-MS/MS analysis; type: ADME, organism-based; conditions: in vivo
[6] = target: Stromelysin-1 (Homo sapiens, UniProt P08254); assay: Inhibition of MMP3 (unknown origin) catalytic domain using MCA-Arg-Pro-Leu-Gly-Leu-Dpa-Ala-Arg-Glu-Arg-NH2 as substrate preincubated for 60 mins followed by substrate addition by fluorescence assay
[7] = target: CYP2C9 (Homo sapiens, UniProt P11712); assay: Inhibition of CYP2C9 in human liver microsomes assessed as reduction of diclofenac metabolism at 3 uM after 8 mins; type: ADME; conditions: probe diclofenac
[8] = Clearance in Sprague-Dawley rat at 0.2 mg/kg, iv administered as cassette bolus dose by LC-MS/MS analysis; type: ADME, organism-based; conditions: in vivo
[9] = system: Canis familiaris; assay: Free AUC in beagle dog at 1 mg/kg, po administered as cassette dosing; type: ADME, organism-based, Canis lupus familiaris; conditions: in vivo
[10] = system: Canis familiaris; assay: Free Cmax in beagle dog at 1 mg/kg, po administered as cassette dosing; type: ADME, organism-based, Canis lupus familiaris; conditions: in vivo
[11] = Plasma protein binding in human; type: ADME, cell-free; conditions: read-out: PPB (converted)
[12] = Oral bioavailability in Sprague-Dawley rat at 1 mg/kg; type: ADME, organism-based; conditions: in vivo
[13] = Plasma protein binding in beagle dog at 1 mg/kg, po administered as cassette dosing; type: ADME, organism-based, Canis lupus familiaris; conditions: read-out: PPB (converted)
[14] = Thermodynamic solubility of the compound in crystalline solid form in phosphate buffer at pH 7.4; type: physicochemical; conditions: read-out: Therm_solubility
[15] = target: Matrix metalloproteinase-14 (Homo sapiens, UniProt P50281); assay: Inhibition of MMP14 (unknown origin) catalytic domain using MCA-Arg-Pro-Leu-Gly-Leu-Dpa-Ala-Arg-Glu-Arg-NH2 as substrate preincubated for 60 mins followed by substrate addition by fluorescence assay
[16] = Half life of the compound assessed as compound rearrangement; type: physicochemical
[17] = target: T1, Organic anion transporter 3 (Homo sapiens, UniProt Q8TCC7); assay: Inhibition of human OAT3 expressed in HEK cells assessed as reduction of [3H]-estrone sulfate uptake by radioactivity counting analysis; type: cell-based, HEK293
T1 sequence (Q8TCC7 whole entry): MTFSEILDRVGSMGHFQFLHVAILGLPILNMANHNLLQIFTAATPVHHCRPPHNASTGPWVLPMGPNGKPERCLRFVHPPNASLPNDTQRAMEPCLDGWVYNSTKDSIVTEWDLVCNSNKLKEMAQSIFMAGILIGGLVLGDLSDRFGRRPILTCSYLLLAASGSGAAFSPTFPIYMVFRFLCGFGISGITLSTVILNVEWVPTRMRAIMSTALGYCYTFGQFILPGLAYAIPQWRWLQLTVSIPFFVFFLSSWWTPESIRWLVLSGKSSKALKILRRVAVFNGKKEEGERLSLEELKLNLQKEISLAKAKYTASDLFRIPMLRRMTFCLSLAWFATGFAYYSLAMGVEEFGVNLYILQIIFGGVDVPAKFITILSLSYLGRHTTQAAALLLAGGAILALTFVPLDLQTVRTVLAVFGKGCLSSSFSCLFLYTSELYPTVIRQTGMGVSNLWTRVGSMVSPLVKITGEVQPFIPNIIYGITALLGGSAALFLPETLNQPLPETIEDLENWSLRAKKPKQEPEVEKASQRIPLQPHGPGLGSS

Sequence of CYP2C9 (P11712 whole entry): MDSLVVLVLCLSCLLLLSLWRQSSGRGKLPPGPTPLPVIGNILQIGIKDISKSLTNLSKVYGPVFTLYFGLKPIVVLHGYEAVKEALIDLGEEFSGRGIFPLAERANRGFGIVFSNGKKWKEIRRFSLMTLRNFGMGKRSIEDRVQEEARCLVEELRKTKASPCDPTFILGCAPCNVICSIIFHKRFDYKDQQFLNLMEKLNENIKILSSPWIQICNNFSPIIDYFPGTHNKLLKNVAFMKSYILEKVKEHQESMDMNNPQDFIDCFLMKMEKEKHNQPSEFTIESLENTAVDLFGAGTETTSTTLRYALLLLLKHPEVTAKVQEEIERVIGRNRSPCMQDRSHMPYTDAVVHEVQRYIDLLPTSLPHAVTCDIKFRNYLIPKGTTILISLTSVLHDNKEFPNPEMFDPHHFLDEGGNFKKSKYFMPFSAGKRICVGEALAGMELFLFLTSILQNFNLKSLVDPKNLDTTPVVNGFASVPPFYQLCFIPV
Sequence of Stromelysin-1 (P08254 whole entry, the tested form may be a part): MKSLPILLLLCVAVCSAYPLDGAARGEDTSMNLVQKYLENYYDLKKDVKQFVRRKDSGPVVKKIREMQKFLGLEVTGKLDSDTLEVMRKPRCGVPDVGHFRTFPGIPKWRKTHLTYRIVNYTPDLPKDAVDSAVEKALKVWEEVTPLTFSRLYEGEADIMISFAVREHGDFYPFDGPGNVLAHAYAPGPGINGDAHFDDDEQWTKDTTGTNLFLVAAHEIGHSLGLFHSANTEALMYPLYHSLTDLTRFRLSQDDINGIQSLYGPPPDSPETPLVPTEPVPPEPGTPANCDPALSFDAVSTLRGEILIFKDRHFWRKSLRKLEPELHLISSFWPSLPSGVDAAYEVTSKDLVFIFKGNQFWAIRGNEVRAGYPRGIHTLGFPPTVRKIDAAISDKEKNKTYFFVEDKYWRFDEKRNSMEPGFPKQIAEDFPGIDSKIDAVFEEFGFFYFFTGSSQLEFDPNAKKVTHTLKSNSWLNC

Compound: Cc1cc(-c2nnn(C[C@H]3CC[C@H](CO)CC3)n2)cc(C(=O)NCc2cccc(C(F)(F)F)c2)n1
inhibition at 8 min, 3 µM [7]: 94% | Ki [3]: 23.8 nM

Compound: COc1cccc(CNC(=O)c2cc(-c3nnn(C[C@H]4CC[C@H](NC(C)=O)CC4)n3)cc(C)n2)c1
microsomal CLint [2]: 24.7 µL/min/mg | Ki [3]: 2 nM | Ki [6]: > 10000 nM | clearance [8]: 77.6 mL/min/kg

Compound: CNC(=O)[C@@H](NC(=O)[C@H](CC(C)C)[C@H](O)C(=O)NO)C(C)(C)C
IC50 [15]: 10000 nM

Compound: COc1cccc(CNC(=O)c2cc(-c3nnn(C[C@H]4CC[C@@H](CO)CC4)n3)cc(C)n2)c1
Ki [3]: 4.1 nM | Ki [6]: 8730 nM

Compound: COc1cccc(CNC(=O)c2cc(-c3nnn(CC4CCCCO4)n3)cc(C)n2)c1 (single isomer, unassigned; (+))
Ki [3]: 16.8 nM | Ki [6]: > 10000 nM

Compound: COc1cccc(CNC(=O)c2cc(-c3nnn(C[C@H]4CC[C@@H](NS(C)(=O)=O)CC4)n3)cc(C)n2)c1
Ki [3]: 8.2 nM | Ki [6]: > 10000 nM

Compound: COc1cccc(CNC(=O)c2cc(-c3nnn(C[C@H]4CC[C@H](CO)CC4)n3)cc(C)n2)c1
logD [1]: 3.57 | microsomal CLint [2]: 32.7 µL/min/mg | inhibition at 8 min, 3 µM [7]: 66% | Ki [3]: 2.1 nM | microsomal CLint [4]: 94.9 µL/min/mg | clearance [5]: 76.6 mL/min/kg | Ki [6]: > 10000 nM

Compound: Cc1cc(-c2nnn(C[C@H]3CC[C@H](C(=O)O)CC3)n2)cc(C(=O)NCc2ccc(F)cc2)n1
IC50 [17]: 6000 nM | half-life [16]: 67 h

Next, values leading:

logD [1]: 2.49 | microsomal CLint [2]: < 8 µL/min/mg | Ki [3]: 14.1 nM | microsomal CLint [4]: 74 µL/min/mg | clearance [5]: 25.8 mL/min/kg | Ki [6]: > 10000 nM
Compound: COc1cccc(CNC(=O)c2cc(-c3nnn(CC4COCCO4)n3)cc(C)n2)c1 (racemic)

Ki [3]: 10.9 nM | Ki [6]: > 10000 nM
Compound: COc1cccc(CNC(=O)c2cc(-c3nnn(C[C@H]4CC[C@@H](O)CC4)n3)cc(C)n2)c1

logD [1]: 4.37 | microsomal CLint [2]: 41.7 µL/min/mg | Ki [3]: 33.6 nM | microsomal CLint [4]: 98.5 µL/min/mg | clearance [5]: 63.5 mL/min/kg | Ki [6]: > 10000 nM
Compound: COc1cccc(CNC(=O)c2cc(-c3nnn(CC4CCCCC4)n3)cc(C)n2)c1

Ki [3]: 38.5 nM
Compound: Cc1cc(-c2nnn(C[C@H]3CC[C@H](CO)CC3)n2)cc(C(=O)NCc2cccc(Cl)c2)n1

microsomal CLint [2]: < 8 µL/min/mg | fAUC [9]: 3.24 µM·h | fCmax [10]: 580 nM | fraction unbound [11]: 0.31 | bioavailability [12]: 65% | fraction unbound [13]: 0.37 | Ki [3]: 5.8 nM | solubility thermodynamic [14]: 237 µM (≈ 108 µg/mL) | clearance [5]: 10.6 mL/min/kg | Ki [6]: > 10000 nM
Compound: COc1cccc(CNC(=O)c2cc(-c3nnn(C[C@H]4CO[C@H](CO)CO4)n3)nc(C)n2)c1 (racemic)

Ki [3]: 110 nM
Compound: Cc1cc(-c2nnn(C[C@H]3CC[C@H](CO)CC3)n2)cc(C(=O)NCc2cccc(F)c2)n1

logD [1]: 2.04 | microsomal CLint [2]: < 8 µL/min/mg | fAUC [9]: 1.23 µM·h | fCmax [10]: 66 nM | fraction unbound [11]: 0.14 | bioavailability [12]: 48% | fraction unbound [13]: 0.24 | Ki [3]: 11.7 nM | solubility thermodynamic [14]: 28 µM (≈ 12.7 µg/mL) | microsomal CLint [4]: 15.7 µL/min/mg | clearance [5]: 7.7 mL/min/kg | Ki [6]: > 10000 nM
Compound: COc1cccc(CNC(=O)c2cc(-c3nnn(C[C@H]4CO[C@H](CO)CO4)n3)cc(C)n2)c1 (racemic)

half-life [16]: 0.5 h
Compound: O=C(O)Cc1ccccc1Nc1c(Cl)cccc1Cl [DICLOFENAC]

Ki [3]: 16.5 nM | Ki [6]: > 10000 nM
Compound: COc1cccc(CNC(=O)c2cc(-c3nnn(CC4CCCOC4)n3)cc(C)n2)c1 (racemic)

Ki [3]: 1.4 nM | Ki [6]: > 10000 nM
Compound: COc1cccc(CNC(=O)c2cc(-c3nnn(C[C@H]4CC[C@@H](NC(C)=O)CC4)n3)cc(C)n2)c1

inhibition at 8 min, 3 µM [7]: 90% | Ki [3]: 4 nM
Compound: Cc1cc(-c2nnn(C[C@H]3CC[C@H](CO)CC3)n2)cc(C(=O)NCc2ccc(F)c(Cl)c2)n1
